In paper PMC6536413, “Application of ultrasound‐guided cholecystocentesis to the evaluation of the metabolite profiling in bile of dogs and cynomolgus monkeys” (Pharmacology Research & Perspectives, 2019):
Marks after values point to notes of the source that are not given here.

Legend:
[1] = Metabolite profile of ATV in dog bile (LC-MS, UV 254 nm); type: in vivo, beagle dogs; conditions: based on the UV chromatograms
Protocol: Dog bile samples obtained by cholecystocentesis were pooled across animals (n = 3). Samples were mixed with an equal volume of citrate buffer (100 mmol/L) to make the final buffer concentration of 50 mmol/L. The mixture was mixed by vortexing for 1 minute and then centrifuged at 12 000× g for 15 minutes. An aliquot (5‐10 μL) of the supernatant was injected onto the UHPLC column for LC‐MS/MS‐based analysis.
The metabolite profile was obtained using LTQ‐Orbitrap coupled with Accela UHPLC and PDA (ThermoScientific, San Jose, CA) and a CTC PAL autosampler equipped with a cooling stack that maintained samples at 4°C during analysis. A 20‐minute UHPLC method was developed. The column was Acquity UPLC HSS T3 (Waters, Milford, MA) 2.1 × 150 mm, 1.8 µm. The column was maintained at a temperature of 55°C. The mobile phase consisted of 0.1% formic acid in water (solvent A) and 0.1% formic acid in acetonitrile (solvent B) at a flowrate of 600 µL/min with the following linear gradient conditions: 5% A for 0.5 minutes, 20‐60% B over 14 minutes, 95% B over 3 minutes, and 5% B isocratic for 2 minutes. Instrument settings were as follows: m/z range: 100 to 1000, capillary temperature was set at 280°C, nitrogen sheath gas flow rate 80 (arbitrary units), auxiliary gas 20, spray voltage 4.0 kV, and tube lens offset 80 V. In addition, UV wavelength was monitored at 254 nm.

[2] = Metabolite profile of ATV in monkey bile (LC-MS, UV 254 nm); type: in vivo, cynomolgus macaques; conditions: UV chromatograms
[3] = Concentration of ATV and metabolites in monkey bile obtained by BDC and UCC (LC-MS/MS); type: in vivo, cynomolgus macaques; conditions: UCC monkeys, 4‐5 h, 30 mg/kg ATV orally, ± standard deviation
[4] = Concentration of ATV and metabolites in dog bile obtained by BDC and UCC (LC-MS/MS); type: in vivo, beagle dogs; conditions: for Concentration in bile: BDC dogs, 40 mg/kg ATV orally, ± standard deviation; for concentration at 6 h / concentration at 24 h: male, beagle, dog, bile, po, 40 mg/kg
Protocol: (§1) Plasma samples were collected at 0.5, 1, 2, 4, 6, and 24 hours postdose via cephalic vein or indwelling cephalic catheter. At the 6‐ and 24‐hours postdose time points, dogs were sedated with propofol at 6 mg/kg through an indwelling cephalic catheter. The dogs were then positioned in a dorsal‐recumbency with head elevated. Heart rate, rhythm, and arterial oxygen saturation were monitored throughout the procedure. After shaving and aseptically preparing the abdominal skin immediately caudal to the xiphoid process, an ultrasound exam of the gallbladder and cranial abdomen was done using a Mylab30cv ultrasound system with 9‐3 MHz micro‐convex transducer (Esoate, Indianapolis, IN). A 21‐gauge, 1.5‐inch needle, attached to a 5‐mL syringe, was inserted percutaneously through the abdominal wall into the gallbladder lumen. Effort was made to completely empty the gallbladder by aspiration (typically, 2‐5 mL bile was obtained). The needle and syringe were withdrawn and the bile samples were immediately saved on dry ice for later analysis. Dogs were allowed to recover in their home cages. Both plasma and bile samples were stored at −20°C until analysis.
(§2) Plasma samples were collected from dogs and monkeys at 0.5, 1, 2, 4, 6, and 24 hours postdose. Bile samples were collected at 0‐2 hours, 2‐4 hours, 4‐6 hours, 6‐8 hours, and 8‐24 hours intervals. Both plasma and bile samples were stored at −20°C until analysis.
(§3) Standard curves and quality control (QC) samples defining the dynamic range of the bioanalytical method were prepared in commercially available control plasma and processed in the same fashion as the test samples. When dilutions were required, an aliquot of the sample was diluted into control plasma. […] The supernatant was then separated from the precipitated proteins after a 10‐minute centrifugation at 3500 rpm (2109× g) at 10°C and transferred to an autosampler 96‐well plate. An aliquot (10 µL) was injected onto the ultrahigh performance liquid chromatography (UHPLC) column for LC‐MS/MS‐based analysis. Samples from individual animals were not pooled prior to quantitative analysis.
(§4) The UHPLC system Nexera (Shimadzu, Japan) consisted of two pumps (LC30AD), a column heater (CTO‐30A), and an autosampler (SIL‐30AC) equipped with a cooling compartment that maintained samples at 15°C during analysis. The analytical column used was a BEH C18 2.1 mm × 50 mm, 1.7 µm (Waters Corporation, Milford, MA) at 50°C. The mobile phase, which consisted of 0.1% formic acid in water (A) and acetonitrile (B), was delivered at a flow rate of 0.6 mL/min. The initial conditions were 100% aqueous followed by 1‐minute gradient to 100% acetonitrile then hold for 0.4 minutes and back to initial conditions.
(§5) The UHPLC was interfaced to a Finnigan TSQ Quantum Ultra LC‐MS/MS tandem mass spectrometer (Thermo Electron Corporation) equipped with heated electrospray ionization (HESI‐II) interface operating in the positive ionization mode. Ultrahigh‐purity nitrogen was used as the sheath and auxiliary gases at flow rates of 55 L/h for sheath and 25 L/h for auxiliary. The desolvation temperature was 300°C and the source temperature was 350°C. The detection of each analyte was achieved through selected reaction monitoring. […]

[5] = Plasma pharmacokinetics of ATV and metabolites in BDC and UCC monkeys (LC-MS/MS); type: in vivo, cynomolgus macaques; conditions: for Cmax / Tmax / AUC: male, cynomolgus, cynomolgus monkey, plasma, po, 30 mg/kg, 30 mg/kg oral dose of ATV, ± standard deviation; for AUC: read-out: AUC0‐24h; for plasma concentration: both the UCC and BDC monkey plasma samples, 30 mg/kg ATV orally
Protocol: (§6) Plasma and bile samples were collected. For bile collection monkeys were sedated with ketamine (8 mg/kg) and dexmedetomidine (0.05 mg/kg) intramuscularly. At the conclusion of the procedure, sedation was reversed with atipamezole (0.15 mg/kg) intramuscularly. All other procedures were the same as for the dog.
as §2, §3, §4, §5
(§7) The peak concentration (Cmax) and time for Cmax (Tmax) were recorded directly from experimental observations. The area under the curve from time 0 to 24 hours (AUC0‐24h) was calculated using a combination of linear and log trapezoidal summations.

[6] = Plasma pharmacokinetics of ATV and metabolites in BDC and UCC dogs (LC-MS/MS); type: in vivo; conditions: male, beagle, dog, po, 40 mg/kg, 40 mg/kg oral dose of ATV, ± standard deviation; for AUC: read-out: AUC0‐24h
Protocol: as §1, §2, §3, §4, §5, §7

[7] = Concentration of ATV and metabolites in monkey bile obtained by BDC and UCC (LC-MS/MS); type: in vivo, cynomolgus macaques; conditions: for Concentration in bile: BDC monkeys, 30 mg/kg ATV orally; for concentration at 24 h: male, cynomolgus, cynomolgus monkey, bile, po, 30 mg/kg
Protocol: as §6, §2, §3, §4, §5

[8] = 0‐2 h, n = 2 due to blocked/displaced cannulas
[9] = 6‐8 h, n = 2 due to blocked/displaced cannulas

Row | abundance of metabolite in bile [1] | abundance of metabolite in bile [2] | Concentration in bile [3] [µM] | Concentration in bile ([4]; 0‐2 h) [µM] | Concentration in bile ([4]; 2‐4 h) [µM] | Concentration in bile ([4]; 4‐6 h) [µM] | Concentration in bile ([4]; 6‐8 h) [µM] | Concentration in bile ([4]; 8‐24 h) [µM] | concentration at 6 h [4] [µM] | concentration at 24 h [4] [µM] | Cmax ([5]; BDC monkeys (n = 4)) [µM] | Tmax ([5]; BDC monkeys (n = 4)) [h] | Cmax ([5]; UCC monkeys (n = 3)) [µM] | Tmax ([5]; UCC monkeys (n = 3)) [h] | Concentration in bile [7, 8] [µmol/L] | Concentration in bile ([7]; 2‐4 h, ± standard deviation) [µmol/L] | Concentration in bile ([7]; 4‐6 h, ± standard deviation) [µmol/L] | Concentration in bile [7, 9] [µmol/L] | Concentration in bile ([7]; 8‐24 h, ± standard deviation) | concentration at 24 h [7] [µM] | also measured | Compound
1 | major oxidative metabolites | major oxidative metabolites | 334 ± 70 | 256 ± 284 | 690 ± 296 | 337 ± 266 | 168 ± 134 | 27 ± 19 | 151 ± 53 | 63 ± 65 | 0.055 ± 0.02 | 9 ± 10.1 | 0.031 ± 0.018 | 2 ± 1.7 | 112 | 317 ± 66 | 412 ± 302 | 306 | 303 ± 151 µmol/L | 586 ± 127 | AUC ([5]; BDC monkeys (n = 4)): 0.664 ± 0.347 µM·h; AUC ([5]; UCC monkeys (n = 3)): 0.057 ± 0.008 µM·h; Cmax ([6]; BDC dogs (n = 3)): 0.352 ± 0.28 µM; Tmax ([6]; BDC dogs (n = 3)): 2 h; AUC ([6]; BDC dogs (n = 3)): 0.667 ± 0.203 µM·h; Cmax ([6]; UCC dogs (n = 3)): 0.215 ± 0.095 µM; Tmax ([6]; UCC dogs (n = 3)): 1.7 ± 0.6 h; AUC ([6]; UCC dogs (n = 3)): 0.736 ± 0.066 µM·h | CC(C)c1c(C(=O)Nc2ccccc2O)c(-c2ccccc2)c(-c2ccc(F)cc2)n1CC[C@@H](O)C[C@@H](O)CC(=O)O [2‐OH ATV, 2‐hydroxyatorvastatin]
2 | – | – | 73 ± 19 | – | – | – | – | – | – | – | 0.024 ± 0.006 | 4 ± 1.6 | 0.039 ± 0.029 | 1.3 ± 0.6 | 36 | 93 ± 57 | 67 ± 35 | 52 | 18 ± 19 µmol/L | 147 ± 44 | AUC ([5]; BDC monkeys (n = 4)): 0.116 ± 0.045 µM·h; AUC ([5]; UCC monkeys (n = 3)): 0.035 ± 0.007 µM·h | CC(C)c1c(C(=O)Nc2ccccc2O)c(-c2ccccc2)c(-c2ccc(F)cc2)n1CC[C@@H]1C[C@@H](O)CC(=O)O1 [2‐OH ATV‐L, 2‐hydroxyatorvastatin lactone]
3 | major oxidative metabolites | major oxidative metabolites | 271 ± 185 | 501 ± 522 | 1342 ± 583 | 862 ± 472 | 558 ± 356 | 184 ± 97 | 279 ± 60 | 262 ± 317 | – | – | – | – | 56 | 180 ± 68 | 207 ± 116 | 140 | 181 ± 29 µmol/L | 594 ± 39 | plasma concentration [5]: below the limits of quantitation; Cmax ([6]; BDC dogs (n = 3)): 0.138 ± 0.12 µM; Tmax ([6]; BDC dogs (n = 3)): 2.7 ± 1.2 h; AUC ([6]; BDC dogs (n = 3)): 0.293 ± 0.038 µM·h; Cmax ([6]; UCC dogs (n = 3)): 0.082 ± 0.03 µM; Tmax ([6]; UCC dogs (n = 3)): 3.3 ± 1.2 h; AUC ([6]; UCC dogs (n = 3)): 0.381 ± 0.128 µM·h | CC(C)c1c(C(=O)Nc2ccc(O)cc2)c(-c2ccccc2)c(-c2ccc(F)cc2)n1CC[C@@H](O)C[C@@H](O)CC(=O)O [4‐OH ATV, 4‐hydroxyatorvastatin]
4 | – | – | 9 ± 5 | – | – | – | – | – | – | – | – | – | – | – | 2 | 6 ± 3 | 4 ± 2 | 3 | 2 ^b μmol/L | 19 ± 3 | plasma concentration [5]: below the limits of quantitation | CC(C)c1c(C(=O)Nc2ccc(O)cc2)c(-c2ccccc2)c(-c2ccc(F)cc2)n1CC[C@@H]1C[C@@H](O)CC(=O)O1 [4‐OH ATV‐L, 4‐hydroxyatorvastatin lactone]
